Measured values reported in the supplement of paper PMC10307832.

Experiments:
Assay in all cases: relative viability (nuclei count vs DMSO), 5 days (fraction); higher = more cells survive
[1] = compound: Cc1ccc2nc(NCCN)c3ncc(C)n3c2c1 + CC1(C)CCC(c2ccc(Cl)cc2)=C(CN2CCN(c3ccc(C(=O)NS(=O)(=O)c4ccc(N[C@H](CCN5CCOCC5)CSc5ccccc5)c(S(=O)(=O)C(F)(F)F)c4)cc3)CC2)C1 [Navitoclax] (partner 0.5 µM)
Summary of the method: (§1)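 Lung cancer cell lines were pin-tool dosed in 1536-well plates on the day after seeding, with either a lone drug or a fixed anchor-drug dose plus five library-drug doses (not always all listed) in √10 steps. Nuclei were counted on 4× images after 5 days. Relative viability is the ratio of treated-well to vehicle-well nuclei counts, with each value a median of duplicate plates.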

Salubrinal = compound: O=C(/C=C/c1ccccc1)NC(NC(=S)Nc1cccc2cccnc12)C(Cl)(Cl)Cl [Salubrinal]
Summary of the method: (§2)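 Viability was read as treated-well nuclei divided by vehicle-well nuclei, using the median across plates. Lung cancer cell lines in 1536-well plates were kept overnight at 37 °C, pinned with five √10-spaced library-drug doses, and after 5 days were Hoechst-stained, imaged at 4× and counted in MetaXpress. Plates passed only with control CV below 25% and at least one doubling.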

[2] = compound: Cc1ccc2nc(NCCN)c3ncc(C)n3c2c1
Summary of the method: as §2

[3] = compound: Cc1ccc2nc(NCCN)c3ncc(C)n3c2c1 + COc1cc2c(Oc3ccc(NC(=O)C4(C(=O)Nc5ccc(F)cc5)CC4)cc3F)ccnc2cc1OCCCN1CCOCC1 [Foretinib] (partner 0.25 µM)
Summary of the method: as §1

Cell Line | relative viability ([1]; first compound 0.04 µM) | relative viability ([1]; first compound 0.1265 µM) | relative viability ([1]; first compound 0.4 µM) | relative viability ([1]; first compound 1.265 µM) | relative viability ([1]; first compound 4 µM) | relative viability (Salubrinal; 0.08 µM) | relative viability (Salubrinal; 0.253 µM) | relative viability (Salubrinal; 0.8 µM) | relative viability (Salubrinal; 2.53 µM) | relative viability (Salubrinal; 8 µM) | relative viability ([2]; 0.04 µM) | relative viability ([2]; 0.1265 µM) | relative viability ([2]; 0.4 µM) | relative viability ([2]; 1.265 µM) | relative viability ([2]; 4 µM) | relative viability ([3]; first compound 0.04 µM) | relative viability ([3]; first compound 0.1265 µM) | relative viability ([3]; first compound 0.4 µM) | relative viability ([3]; first compound 1.265 µM) | relative viability ([3]; first compound 4 µM)
HCC-44 | 1.1 | 0.901 | 0.951 | 0.829 | 0.937 | 0.952 | 0.97 | 1.07 | 1.02 | 0.973 | 0.976 | 0.945 | 0.963 | 0.972 | 0.914 |  |  |  |  | 
HCC-827 | 1.03 | 0.969 | 1.03 | 1.05 | 0.984 | 1.04 | 1.07 | 1.01 | 1.01 | 1.03 | 1.07 | 1.04 | 1.02 | 1.04 | 1.05 | 1.05 | 1.1 | 1.06 | 1.02 | 0.935
NCI-H2342 |  |  |  |  |  | 1.04 | 0.88 | 1.07 | 1.03 | 0.858 | 1.19 | 1.08 | 0.989 | 1.08 | 0.841 | 1.24 | 1.06 | 0.987 | 1.05 | 1.14
NCI-H2347 | 0.871 | 0.723 | 0.715 | 0.787 | 0.677 | 0.94 | 1.03 | 1.15 | 1.08 | 1.07 | 1.06 | 1.12 | 0.911 | 0.986 | 0.962 | 1.2 | 0.741 | 1.02 | 0.869 | 0.792
PC-14 | 0.985 | 1.02 | 0.993 | 0.908 | 0.856 | 1.11 | 0.96 | 1.13 | 1 | 0.862 | 1.04 | 0.963 | 0.927 | 0.917 | 0.671 | 0.944 | 0.908 | 0.984 | 0.933 | 0.943
NCI-H1651 | 1.02 | 1.02 | 1.19 | 1.18 | 0.955 | 1.13 | 0.905 | 1.13 | 0.964 | 0.988 | 1.02 | 0.95 | 0.991 | 0.971 | 0.917 | 0.682 | 0.744 | 0.825 | 0.727 | 0.759
HARA | 1.16 | 1.15 | 1.14 | 1.08 | 1.21 | 1 | 0.956 | 1.02 | 0.908 | 1.17 | 0.913 | 0.956 | 0.928 | 0.843 | 0.973 | 0.783 | 0.829 | 0.903 | 0.956 | 0.861
NCI-H1563 |  |  |  |  |  | 1.01 | 0.942 | 0.943 | 0.919 | 0.911 | 1.02 | 0.909 | 0.947 | 1.03 | 1.01 | 0.954 | 0.882 | 0.872 | 1.06 | 0.991
ABC-1 |  |  |  |  |  | 0.978 | 0.909 | 0.902 | 1.01 | 0.849 | 0.987 | 1.01 | 0.97 | 1.04 | 0.822 | 1.22 | 1.05 | 1.09 | 0.839 | 1.01
SW 900 |  |  |  |  |  | 1.06 | 0.718 | 0.941 | 0.933 | 1.04 | 0.878 | 0.897 | 0.584 | 0.779 | 0.941 | 1.11 | 1.08 |  | 0.684 | 0.772
NCI-H1792 | 0.642 | 0.658 | 0.645 | 0.619 | 0.594 | 1.05 |  | 1.32 | 1.01 | 0.811 | 0.984 | 0.987 |  | 0.963 | 0.826 |  |  |  |  | 
LCLC-103H |  |  |  |  |  | 1.07 | 0.932 | 1.05 | 1.09 | 0.935 | 1 | 0.974 | 0.918 | 1.08 | 0.955 | 0.753 | 0.919 | 0.802 | 0.761 | 0.633
NCI-H1648 |  |  |  |  |  | 0.921 | 0.788 | 0.741 | 0.741 | 0.356 | 0.858 | 0.903 | 0.918 | 0.615 | 0.679 |  |  |  |  | 
NCI-H358 |  |  |  |  |  | 1.06 | 1.02 | 1.09 | 0.908 | 0.795 | 0.988 | 1.01 | 0.933 | 1.07 | 0.919 | 0.752 | 0.718 | 0.635 | 0.721 | 0.654
NCI-H522 |  |  |  |  |  | 0.947 | 0.819 | 1.1 | 1.02 | 0.921 | 0.882 | 1.04 | 0.909 | 1.03 | 1.02 |  |  |  |  | 
NCI-H650 |  |  |  |  |  | 0.839 | 1.04 | 1.08 | 1.11 | 0.912 | 1.03 | 1.03 | 0.797 | 1.02 | 0.941 | 1.09 | 0.937 | 1.12 | 0.948 | 1
NCI-H661 |  |  |  |  |  | 1.09 | 0.928 | 0.992 | 0.937 | 0.998 | 1 | 1.03 | 0.996 | 0.985 | 0.969 | 1.02 | 0.983 | 1.03 | 1.1 | 0.967
NCI-H1623 |  |  |  |  |  | 1.08 | 1.18 | 0.949 | 1.1 | 0.997 | 1.01 | 0.838 | 0.961 | 0.887 | 0.937 | 0.945 | 0.94 | 0.897 | 0.761 | 0.79
